Patent publication US6521662B2, “Ceramide-like compounds having antioxidant property and a method for preparation thereof, and a cosmetic composition containing the same” (Pacific Corporation, priority 2000, dated 2003)

Assays:
[1] = Solubility of natural ceramide and ceramide-like compounds in cosmetic solvents; type: physicochemical; details: 20° C.; dissolved at 80° C. then cooled to 20° C.
Description: The solubility of a natural ceramide and of ceramide-like compounds:
Ceramide Type 3 represented by the following formula (III) has been mainly used in cosmetics. Accordingly, in this experiment were compared solubility of the ceramide Type 3 (obtained from bovine brain) and the ceramide-like compounds of Examples 1 to 3 in various solvents such as ethanol, which have been widely used in cosmetics. Samples were dissolved in the solvents of 80° C. then cooled to 20° C.

[2] = Anti-oxidative activity using DPPH; details: 37° C. for 30 minutes; UV spectrophotometer
Description: Anti-oxidative activity using DPPH
Diphenylpicrylhydrazyl(DPPH) has been known as a radical reaction inhibitor which is stabilized by the radical reaction. Also, it has a chromophoric property with compounds having anti-oxidative activity. Therefore, this experiment utilized the above property.
About 50 ml of DPPH was introduced into the test tube. And samples were added dropwise thereto. After addition, the test tube was maintained in constant temperature bath of 37° C. for 30 minutes. The extent of color development was measured by UV spectrophotometer.

[3] = Anti-oxidative activity using linoleic acid; details: ammoniumthiocyanate, after 3 minutes, lower absorbance means higher anti-oxidative activity
Description: Anti-oxidative activity using linoleic acid
Linoleic acid is easily oxidized to be peroxide due to double bond contained therein. Therefore, this experiment utilized the above property.
The control solution employed in this experiment was prepared by adding 2.88 ml of 2.5% linoeic acid in ethanol and 9 ml of 40 mmol phosphate buffer(pH 7.0) to 200 ml of ethanol. This control solution was maintained in the dark of 40° C. And, sample solutions were prepared by adding 9.7 ml of 75% ethanol, 0.1 ml of 30% ammoniumthiocyanate and 0.1 ml of each sample, to 0.1 ml of the control solution. After 3 minutes, the absorbance was measured at 500 nm by using a UV spectrophotometer. Lower absorbance value means higher anti-oxidative activity.

Row | Compound | Solubility in Cetyl octanoate [1] [% wt/wt %] | Solubility in Ethanol [1] [% wt/wt %] | Solubility in Isopropyl palmitate [1] [% wt/wt %] | Solubility in Octyl Palmitate [1] [% wt/wt %] | Solubility in Octyl dodecanol [1] [% wt/wt %] | Color development with DPPH (Experiment Example 5-1) [2] | Absorbance at 500 nm (Experiment Example 5-2) [3]
1 | Cc1c(OC(=O)CCC(=O)N(CCO)CC(O)CN(CCO)C(=O)CCC(=O)Oc2cc3c(c(C)c2C)OC(C)(CCCC(C)CCCC(C)CCCC(C)C)CC3)cc2c(c1C)OC(C)(CCCC(C)CCCC(C)CCCC(C)C)CC2 (stereo not drawn) [Example 3, 1,3-bis(N-(2-hydroxyethyl)-γ-tocopherylsuccinoylamino)-2-hydroxypropane] | >5 | >5 | >5 | >5 | >5 | Brown | 0.30
2 | CC(=O)Oc1c(C)c(C)c2c(c1C)CCC(C)(CCC[C@H](C)CCC[C@H](C)CCCC(C)C)O2 (stereo partly drawn) [Vitamin E acetate, reference compound] |  |  |  |  |  | No color change | 0.44
3 | Cc1cc(OC(=O)CCC(=O)N(CCO)CC(O)CN(CCO)C(=O)CCC(=O)Oc2cc(C)c3c(c2)CCC(C)(CCCC(C)CCCC(C)CCCC(C)C)O3)cc2c1OC(C)(CCCC(C)CCCC(C)CCCC(C)C)CC2 (stereo not drawn) [Example 2, 1,3-bis(N-(2-hydroxyethyl)-δ-tocopherylsuccinoylamino) -2-hydroxypropane] | >5 | >5 | >5 | >5 | >5 | Brown | 0.29
4 | Cc1c(C)c2c(c(C)c1OC(=O)CCC(=O)N(CCO)CC(O)CN(CCO)C(=O)CCC(=O)Oc1c(C)c(C)c3c(c1C)CCC(C)(CCCC(C)CCCC(C)CCCC(C)C)O3)CCC(C)(CCCC(C)CCCC(C)CCCC(C)C)O2 (stereo not drawn) [Example 1, 1,3-bis(N-(2-hydroxyethyl)-α-tocopherylsuccinoylamino) -2-hydroxypropane] | >5 | >5 | >5 | >5 | >5 | Brown | 0.23
5 | CCCCCCCCCCCCCCCCCCCCCCCC(=O)NC(CO)C(O)C(O)CCCCCCCCCCCCCC (stereo not drawn) [Natural Ceramide (type 3), reference compound] | <1 | <1 | <1 | <1 | <1 |  | 
6 | Vitamin E [reference compound] |  |  |  |  |  | No color change | 0.23
